Source: PMC12530851, “Design, synthesis, and apoptotic antiproliferative activity of novel dihydropyrimidine-5-carbonitrile/1,2,4-oxadiazole hybrids as dual EGFR/VEGFR-2 inhibitors endowed with antioxidant activity” (RSC Advances, 2025)
Several values for one entry are separate records, joined by “and”; a condition that tells them apart may be missing. Identical values can stand only once.

How the values were obtained:
[1] = system: normal human diploid cell line (WI-38); assay: Cytotoxicity against normal cell line (MTT); format: cell-based; details: for Selectivity index (SI), A-549: WI-38 vs A-549; for Selectivity index (SI), HT-29: WI-38 vs HT-29; for Selectivity index (SI), MCF-7: WI-38 vs MCF-7; for Selectivity index (SI), Panc-1: WI-38 vs Panc-1
[2] = Cytotoxicity against normal cell line (MTT); format: cell-based, human; details: WI-38 normal human diploid cells; normal human diploid WI-38 cells, MTT
caspase-9 = assay: Caspase-9 activation assay in MCF-7 cells; format: cell-based, human; details: for Caspase-9 Fold change: vs untreated control
Experimental: (§1) Compounds10k and 10l were tested as caspases-3, 8, 9, Bax and p53 activators and as down-regulators of the anti-apoptotic protein Bcl2 against the MCF-7 breast cancer cell line.[41] Appendix A gives more details.
To elucidate the apoptotic processes of compounds 10k and 10l, whether via the intrinsic or extrinsic pathway, their impacts on caspase-8 and caspase-9 were evaluated. […] This signifies the activation of both intrinsic and extrinsic pathways (Table 5).
4.2.6. Caspase-8/9 activation assay
Cells were obtained from American Type Culture Collection, cells were grown in RPMI 1640 containing 10% fetal bovine serum at 37°C, stimulated with the compounds to be tested for caspase 8/9, and lysed with Cell Extraction Buffer. This lysate was diluted in Standard Diluent Buffer over the range of the assay and measured for human active caspase-8/9 content. (Cells are Plated in a density of 1.2 – 1.8 × 10,000 cells/well in a volume of 100µl complete growth medium + 100 ul of the tested compound per well in a 96-well plate for 24 hours before the enzyme assay). The absorbance of each microwell was read on a spectro-photometer at 450 nm. […]

Bcl-2 = Bcl-2 level assay in MCF-7 cells; format: cell-based, human; details: for Bcl-2 Fold reduction: vs untreated control
Experimental: as §1
The Bcl-2 protein family, which includes pro-apoptotic proteins (Bax) and anti-apoptotic proteins (Bcl-2), primarily regulates apoptosis.[46] […] Consequently, we assessed the expression levels of Bcl-2 and Bax proteins in MCF-7 breast cancer cells treated with compounds 10k and 10l, Table 6. […]
4.2.8. Bcl-2 inhibition assay
Mix all the reagents thoroughly without foaming before use. Wash the microwells twice with approximately 300 μL Wash Buffer per well with thorough aspiration of microwell contents between washes. Take caution not to scratch the surface of the microwells. After the last wash, empty the wells and tap microwell strips on absorbent pad or paper towel to remove excess Wash Buffer. Use the microwell strips immediately after washing or place upside down on a wet absorbent paper for not longer than 15 minutes. […] Add 100 μL of Sample […]
Diluent in duplicate to all standard wells and to the blank wells. Prepare standard (1:2 dilution) in duplicate ranging from 32 ng/mL to 0.5 ng/mL. Add 100 μL of Sample Diluent, in duplicate, to the blank wells. Add 80 μL of Sample Diluent, in duplicate, to the sample wells. Add 20 μL of each Sample, in duplicate, to the designated wells. Add 50 μL of diluted biotin-conjugate to all wells, including the blank wells. Cover with a plate cover and incubate at room temperature, on a microplate shaker at 100 rpm if available, for 2 hours. Remove plate cover and empty the wells.
Wash microwell strips 3 times as described in step 2. Add 100 μL of diluted Streptavidin-HRP to all wells, including the blank wells. Cover with a plate cover and incubate at room temperature, on a microplate shaker at 100 rpm if available, for 1 hour. Remove the plate cover and empty the wells. Wash microwell strips 3 times as described in step 2. Proceed to the next step. Pipette 100 μl of mixed TMB Substrate Solution to all wells, including the blanks. […] The point, at which the substrate reaction is stopped, is often determined by the ELISA reader. Many ELISA readers record absorbance only up to 2.0
O.D. Therefore, the color development within individual microwells must be watched by the person running the assay and the substrate reaction stopped before positive wells are no longer properly detectable. […] Results must be read immediately after the Stop Solution is added or within one hour if the microwell strips are stored at 2 - 8°C in the dark. Read the absorbance of each microwell on a spectrophotometer using 450 nm as the primary wavelength.

p53 = p53 level assay in MCF-7 cells; format: cell-based, human
Experimental: as §1
P53's ability to eliminate superfluous, damaged, or contaminated cells by apoptosis is critical for the proper regulation of cell proliferation in multicellular organisms.[49] p53 is activated by both external and internal stress signals, allowing for nuclear accumulation in an active state. As a result, p53 induces either reversible cell growth arrest or apoptosis. The aforesaid activity is necessary for tumor suppression.[50]

caspase-3 = assay: Caspase-3 activation assay in MCF-7 cells; format: cell-based, human; details: for Caspase-3 Fold change: vs untreated control
A-549 (lung cancer) = assay: Antiproliferative assay, A-549; format: cell-based; details: Homo sapiens, A549; A-549 lung cancer cells; read-out: Antiproliferative activity IC50 ± SEM, A-549
Description: The dose–response experiments established the IC50 values for the new compounds. The given findings were obtained from at least two distinct studies, each comprising three repeats per concentration. Appendix A (SI File) provides experimental details.[38,39]
The MTT assay[43] was utilized to assess the antiproliferative effects of compounds 10a–l on four human cancer cell lines: HT-29 (colon cancer), Panc-1 (pancreatic cancer), A-549 (lung cancer), and MCF-7 (breast cancer). […]
4.2.2. Assay for antiproliferative effect
To explore the antiproliferative potential of compounds propidium iodide fluorescence assay was performed using different cell lines such as Panc-1 (pancreas cancer cell line), MCF-7 (breast cancer cell line), HT-29 (colon cancer cell line) and A-549 (epithelial cancer cell line), respectively. To calculate the total nuclear DNA, a fluorescent dye (propidium iodide, PI) is used which can attach to the DNA, thus offering a quick and precise technique. PI cannot pass through the cell membrane and its signal intensity can be considered as directly proportional to quantity of cellular DNA. Cells whose cell membranes are damaged or have changed permeability are counted as dead ones. The assay was performed by seeding the cells of different cell lines at a density of 3000-7500 cells/well (in 200μl medium) in culture plates followed by incubation for 24h at 37 °C in humidified 5%CO2/95% air atmospheric conditions. The medium was removed; the compounds were added to the plates at 10 μM concentrations (in 0.1% DMSO) in triplicates, followed by incubation for 48h. DMSO (0.1%) was used as control. After incubation, medium was removed followed by the addition of PI (25 μl, 50μg/mL in water/medium) to each well of the plates. At - 80 °C, the plates were allowed to freeze for 24 h, followed by thawing at 25 °C. A fluorometer (Polar-Star BMG Tech) was used to record the readings at excitation and emission wavelengths of 530 and 620 nm for each well. The percentage cytotoxicity of compounds was calculated using […]
Where ATC= Absorbance of treated cells and AC= Absorbance of control. Erlotinib was used as positive control in the assay. […]

COc1ccc(-c2noc(CSc3nc(-c4ccc(OC)cc4)c(C#N)c(=O)[nH]3)n2)cc1 [Compound 10l, 2-(((3-(4-Methoxyphenyl)-1,2,4-oxadiazol-5-yl)methyl)thio)-4-(4-methoxyphenyl)-6-oxo-1,6-dihydropyrimidine-5-carbonitrile]
Selectivity index (SI), A-549 [1]: > 7.0
Selectivity index (SI), HT-29 [1]: > 7.0
Selectivity index (SI), MCF-7 [1]: > 9.0
Selectivity index (SI), Panc-1 [1]: > 7.0
IC50 [2]: > 0.2 µM
Caspase-9 Conc (caspase-9): 22 ± 1 ng/mL
Caspase-9 Fold change (caspase-9): 22 fold
Bcl-2 (Bcl-2): 1.50 ± 0.001 ng/mL
Bcl-2 Fold reduction (Bcl-2): 3 fold
p53 (p53): 285 ± 2 pg/mL
Caspase-3 Conc (caspase-3): 530 ± 4 pg/mL
Caspase-3 Fold change (caspase-3): 8 fold and 8.00 fold
IC50 (A-549 (lung cancer)): 0.028 ± 0.001 µM

COc1ccc(-c2nc(SCc3nc(-c4ccc(Cl)cc4)no3)[nH]c(=O)c2C#N)cc1 [Compound 10k, 2-(((3-(4-Chlorophenyl)-1,2,4-oxadiazol-5-yl)methyl)thio)-4-(4-methoxyphenyl)-6-oxo-1,6-dihydropyrimidine-5-carbonitrile]
Selectivity index (SI), A-549 [1]: > 8.0
Selectivity index (SI), HT-29 [1]: > 8.0
Selectivity index (SI), MCF-7 [1]: > 10.0
Selectivity index (SI), Panc-1 [1]: > 9.0
IC50 [2]: > 0.2 µM
Caspase-9 Conc (caspase-9): 24 ± 1 ng/mL
Caspase-9 Fold change (caspase-9): 24 fold
Bcl-2 (Bcl-2): 1.20 ± 0.001 ng/mL
Bcl-2 Fold reduction (Bcl-2): 4 fold
p53 (p53): 330 ± 2 pg/mL
Caspase-3 Conc (caspase-3): 590 ± 5 pg/mL
Caspase-3 Fold change (caspase-3): 9 fold and 9.00 fold
IC50 (A-549 (lung cancer)): 0.023 ± 0.001 µM
